Values after ≈ are worked out from the molar mass of the structure shown. Read-outs that look alike come from different tables or passages of the source.
Assays:
[1] = system: SARS CoV-2 (USA_WA1/2020); assay: Cytopathic effect (CPE) assay; format: cell-based; conditions: for Emax: read-out: Efficacy CPE assay
Vero-E6 = assay: Cytotoxicity counter screen (cell viability, CellTiter-Glo); format: cell-based; conditions: for IC50: Chlorocebus sabaeus, read-out: IC50 (μM) cell viability
Procedure: Compound cytotoxicity was assessed in a BSL-2 counter screen as follows: Cell culture media (MEM, 1% Pen/Strep/GlutaMax, 1% HEPES, 2% HI FBS) was dispensed at 5 μl/well into ARPs and incubated at room temperature to allow for compound dissolution. Vero-E6 (selected for high ACE2 expression) was dispensed into assay plates at 4000 cells/well in 25 μl media. Assay plates were incubated for 72 h at 37 C, 5% CO2, 90% humidity. Then, 30 μl/well of CellTiter-Glo (Promega #G7573) was dispensed into the assay plate. Luminescence was read using a BMG PHERAstar plate reader following incubation at room temperature for 10 min to measure cell viability.

[2] = Kinetic solubility (Tier I ADME); conditions: kinetic from dmso stock
[3] = Rat liver microsomal (RLM) stability; conditions: for half-life: rat
[4] = Parallel artificial membrane permeability assay (PAMPA); conditions: for Papp / Permeability: PAMPA; for Permeability: Tier I ADME
SARS-CoV-2 [5] = assay: SARS-CoV-2 viral titer in human bronchial epithelial cells (HBEC; EpiAirway); format: cell-based; conditions: dilutions 0.01, 0.1, 1, 10 micrograms per mL
Procedure: In the first part of the experiment, the test compounds were diluted in Assay medium (AIR-100-ASY). The test compound dilutions (0.01, 0.1, 1, 10 micrograms per mL) were added to each insert on the apical layer (0.15 mL) and basal layer (0.85 mL). Following the 1 h treatment, the apical medium was removed, and the basal side was replaced with fresh compound. Virus (0.15 mL) was then added to each insert on the apical layer, removed after 1 h and washed with 0.4 mL TEER buffer. The basal side medium/compound was replaced with 1 mL of Assay medium. Every twenty-four hours, the apical layer of the tissues were washed with 0.4 mL of TEER buffer and aliquoted to separate microfuge tubes. Trizol LS (1.2 mL) was added to each tube, pipetted up and down several times and stored at −80° C. The basal layer supernatant (1 mL) was collected from each well, aliquoted into separate microfuge tubes and stored at −80° C. The basal side medium was replaced with 1 mL of Maintenance Medium.
In the second part of the experiment, RNA was isolated from the trizol samples and the supernatants from all treatments were tittered by plaque assay or TCID50 to determine the amount of virus present in each sample.

in vitro [6] = conditions: rat, microsomes
physchem = conditions: kinetic from dmso stock
in vitro [7] = conditions: PAMPA
SARS-CoV-2 [8] = conditions: EIDD-2801 250 mpk BID; Compound P3 60 mpk BID
Text: EIDD-2801 (molnupiravir) was chosen as the positive control at 250 mpk BID oral dose.

ZIKV = conditions: cited from earlier work
[9] = Pharmacokinetics in mice IV 3 and PO 10 mg/kg; plasma, lung and liver
[10] = Severe acute respiratory syndrome coronavirus 2, Vero C1008, % inhibition of CPE, SARS-CoV-2-infected Vero-E6, 72 h
[11] = Severe acute respiratory syndrome coronavirus 2, Vero C1008, rescue IC50, SARS-CoV-2-infected Vero-E6, 72 h
[12] = Vero C1008, uninfected Vero-E6, 72 h, CellTiter-Glo
[13] = uninfected Vero-E6, 72 h, CellTiter-Glo
[14] = Severe acute respiratory syndrome coronavirus 2, Vero C1008, 72 h
[15] = mice, Compound P3 dosed PO 10 mg/kg, Liver
[16] = mice, Compound P3 dosed PO 10 mg/kg, Plasma
[17] = mouse Plasma, Compound P3 dosed IV 3 mg/kg
[18] = mouse Plasma, Compound P3 dosed PO 10 mg/kg

## O=C(Nc1ccc([N+](=O)[O-])cc1Cl)c1cc(Cl)ccc1OC1CCNCC1 [Compound 4, 5-chloro-N-(2-chloro-4-nitrophenyl)-2-(piperidin-4-yloxy)benzamide]
[1]; [10]
  Emax: -8.3%
[1]; [11]
  IC50: 5.1 µM
Vero-E6; [12]
  IC50: 4.05 µM
[2]
  solubility: 8.4 µg/mL (≈ 20.5 µM)
[3]; rat liver microsomes
  half-life: > 30 min
[4]
  Papp: 516 ×10⁻⁶ cm/s

## O=C(Nc1ccc([N+](=O)[O-])cc1Cl)c1cc(Br)ccc1O [Compound 6, 5-bromo-N-(2-chloro-4-nitrophenyl)-2-hydroxybenzamide]
Vero-E6; Vero C1008, 72 h
  IC50: 0.4 µM
Vero-E6; [13]
  Efficacy cell viability: −94.8
SARS-CoV-2 [5]
  inhibition of SARS-CoV-2 (viral titer): effectively inhibited SARS-CoV-2 in human bronchial epithelial cells at sub-nanomolar and nanomolar concentrations
[3]; microsomes
  half-life: > 30 min
[4]
  Permeability: 67 10^−6 cm/sec

## O=C(Nc1ccc([N+](=O)[O-])cc1)c1cc(Cl)ccc1O [Compound 24, 5-chloro-2-hydroxy-N-(4-nitrophenyl)benzamide]
Vero-E6; Vero C1008, 72 h
  IC50: 0.57 µM
Vero-E6; [13]
  Efficacy cell viability: −93.1
[3]; rat liver microsomes
  RLM stability (T1/2 min): 22 min
[4]
  Permeability: 127.13 10^−6 cm/sec

## COc1cc([N+](=O)[O-])ccc1NC(=O)c1cc(Cl)ccc1O [Compound 27, 5-chloro-2-hydroxy-N-(2-methoxy-4-nitrophenyl)benzamide]
Vero-E6; Vero C1008, 72 h
  IC50: 0.64 µM
Vero-E6; [13]
  Efficacy cell viability: −92.9
[3]; microsomes
  half-life: > 30 min
[4]
  Permeability: 334.4 10^−6 cm/sec

## N#Cc1ccc(NC(=O)c2cc(Cl)ccc2O)c(Cl)c1 [Compound 32, 5-chloro-N-(2-chloro-4-cyanophenyl)-2-hydroxybenzamide]
Vero-E6; [12]
  IC50: 1.01 µM
Vero-E6; [13]
  Efficacy cell viability: −99.6
[3]; rat liver microsomes
  half-life: > 30 min
[4]
  Papp: 5.16 ×10⁻⁶ cm/s

## O=C(Nc1ccc(C(F)(F)F)cc1)c1cc(Cl)ccc1O [Compound 39, 5-chloro-2-hydroxy-N-(4-(trifluoromethyl)phenyl)benzamide]
Vero-E6; Vero C1008, 72 h
  IC50: 0.45 µM
Vero-E6; [13]
  Efficacy cell viability: −94.6
[3]; microsomes
  half-life: > 30 min
[4]
  Papp: 22.3 ×10⁻⁶ cm/s

## O=C(Nc1ccc(C(F)(F)F)c(F)c1)c1cc(Br)ccc1O [Compound 59, 5-bromo-N-(3-fluoro-4-(trifluoromethyl)phenyl)-2-hydroxybenzamide]
Vero-E6; [12]
  IC50: 0.45 µM
Vero-E6; [13]
  Efficacy cell viability: −91.7
In vitro [6]
  half-life: > 30 min

## O=C(Oc1ccc(Cl)cc1C(=O)Nc1ccc([N+](=O)[O-])cc1Cl)c1ccc(C(F)(F)F)cc1 [Compound P1, 4-chloro-2-((2-chloro-4-nitrophenyl)carbamoyl)phenyl 4-(trifluoromethyl)benzoate]
[1]; [10]
  Emax: 34%
[1]; [11]
  IC50: 0.11 µM
Vero-E6; [12]
  IC50: 0.57 µM
Vero-E6; [13]
  Efficacy cell viability: −96.34
physchem
  solubility: < 1 µg/mL
In vitro [7]
  Papp: < 2.6 ×10⁻⁶ cm/s

## CCCCCCCC(=O)Oc1ccc(Cl)cc1C(=O)Nc1ccc([N+](=O)[O-])cc1Cl [Compound P2, 4-chloro-2-((2-chloro-4-nitrophenyl)carbamoyl)phenyl octanoate]
[1]; [10]
  Emax: 36.5%
[1]; [11]
  IC50: 0.1 µM
Vero-E6; [12]
  IC50: 0.57 µM
Vero-E6; [13]
  Efficacy cell viability: −95.8
physchem
  solubility: 1.1 µg/mL (≈ 2.43 µM)
In vitro [7]
  Papp: < 6.5 ×10⁻⁶ cm/s

## CC(=O)Oc1ccc(Cl)cc1C(=O)Nc1ccc([N+](=O)[O-])cc1Cl [Compound P4, 4-chloro-2-((2-chloro-4-nitrophenyl)carbamoyl)phenyl acetate]
[1]; [10]
  Emax: 36.2%
[1]; [11]
  IC50: 0.25 µM
Vero-E6; [12]
  IC50: 0.57 µM
Vero-E6; [13]
  Efficacy cell viability: −93.0
physchem
  solubility: < 1 µg/mL
In vitro [7]
  Papp: 632 ×10⁻⁶ cm/s

## COCC(=O)Oc1ccc(Cl)cc1C(=O)Nc1ccc([N+](=O)[O-])cc1Cl [Compound P5, 4-chloro-2-((2-chloro-4-nitrophenyl)carbamoyl)phenyl 2-methoxyacetate]
[1]; [10]
  Emax: 37%
[1]; [11]
  IC50: 0.11 µM
Vero-E6; [12]
  IC50: 0.51 µM
Vero-E6; [13]
  Efficacy cell viability: −91.2
physchem
  solubility: < 1 µg/mL

## CC(C)OC(=O)Oc1ccc(Cl)cc1C(=O)Nc1ccc([N+](=O)[O-])cc1Cl [Compound P6, 4-chloro-2-((2-chloro-4-nitrophenyl)carbamoyl)phenyl isopropyl carbonate]
[1]; [10]
  Emax: 37.1%
[1]; [11]
  IC50: 0.11 µM
Vero-E6; [12]
  IC50: 0.45 µM
Vero-E6; [13]
  Efficacy cell viability: −82.3
physchem
  solubility: < 1 µg/mL
In vitro [7]; pH 5
  Papp: 57 ×10⁻⁶ cm/s

## O=C(Oc1ccc(Cl)cc1C(=O)Nc1ccc([N+](=O)[O-])cc1Cl)c1ccccc1 [Compound P7, 4-chloro-2-((2-chloro-4-nitrophenyl)carbamoyl)phenyl benzoate]
[1]; [10]
  Emax: 26.9%
[1]; [11]
  IC50: 0.13 µM
Vero-E6; [12]
  IC50: 0.32 µM
Vero-E6; [13]
  Efficacy cell viability: −94.0
physchem
  solubility: < 1 µg/mL

## CCOP(=O)(OCC)Oc1ccc(Cl)cc1C(=O)Nc1ccc([N+](=O)[O-])cc1Cl [Compound P8, 4-chloro-2-((2-chloro-4-nitrophenyl)carbamoyl)phenyl diethyl phosphate]
[1]; [14]
  IC50: 0.41 µM
  Emax: 36.8%
Vero-E6; Vero C1008, 72 h
  IC50: 0.91 µM
Vero-E6; [13]
  Efficacy cell viability: −90.6
[2]
  solubility: < 1 µg/mL
[3]; microsomes
  half-life: > 30 min
[4]
  Papp: 982 ×10⁻⁶ cm/s

## CC(C)COC(=O)Oc1ccc(Cl)cc1C(=O)Nc1ccc([N+](=O)[O-])cc1Cl [Compound P9, 4-chloro-2-((2-chloro-4-nitrophenyl)carbamoyl)phenyl isobutyl carbonate]
[1]; [10]
  Emax: 35.2%
[1]; [11]
  IC50: 0.13 µM
Vero-E6; [12]
  IC50: 0.57 µM
Vero-E6; [13]
  Efficacy cell viability: −91.0
physchem
  solubility: 4.48 µg/mL (≈ 10.5 µM)

## CC(C)C(=O)OC[C@H]1O[C@@H](n2ccc(NO)nc2=O)[C@H](O)[C@@H]1O [EIDD-2801, reference compound]
SARS-CoV-2 [8]
  IHC immunoreactivity staining in the right lung: lowered in severity

## O=C(Nc1ccc([N+](=O)[O-])cc1Cl)c1cc(Cl)ccc1O [Niclosamide, 5-chloro-N-(2-chloro-4-nitrophenyl)-2-hydroxybenzamide, reference compound]
ZIKV; early stages and 24 h post infection
  ZIKV growth: inhibited ZIKV growth
ZIKV; human placental epithelial cells and iPSC-derived human neural progenitor cells
  ZIKV titer: reduced ZIKV titer
[3]; rat liver microsomes
  RLM stability (T1/2 min): >30 min
  half-life: > 30 min
[4]; result in words
  permeability in PAMPA: unable to be quantified in the acceptor compartment
[9]; [15]
  AUC_% Extrap: 4.4%
  t1/2: 438 min
[9]; mice, Compound P3 dosed PO 10 mg/kg, Lung
  AUC_% Extrap: 0.6%
[9]; [16]
  AUC0-INF: 1620 ng·h/mL
  AUC_% Extrap: 1.0%
[9]; [17]
  AUC_%Extrap_obs: 0.3%
  Clast: 0.329 ng/mL
  Tlast: 30 h
[9]; [18]
  AUCINF_obs: 1620 ng·h/mL
  AUC_%Extrap_obs: 1.0%
  Clast: 4.04 ng/mL
  Cmax: 346 ng/mL
  Tlast: 30 h
  t½: 162 min
[9]; mouse, liver, po, 10 mg/kg
  AUC(0-inf): 9250 ng·h/mL
  AUC(0-t): 8850 ng·h/mL
  Cmax: 882 ng/mL
[9]; mouse, lung, po, 10 mg/kg
  AUC(0-inf): 3080 ng·h/mL
  AUC(0-t): 3060 ng·h/mL
  Cmax: 397 ng/mL
  half-life: 258 min
[9]; mouse, plasma, iv, 3 mg/kg
  AUC(0-inf): 587 ng·h/mL
  AUC(0-t): 585 ng·h/mL
  Cmax: 168 ng/mL
  Tmax: 4.98 min
  half-life: 216 min
[9]; mouse, plasma, po, 10 mg/kg
  AUC(0-t): 1600 ng·h/mL
  half-life: 162 min

From patent US20240002332A1, “Small Molecule Inhibitors of SARS-CoV-2 Infections” (priority 2020, published 2024)
